ChEMBL document CHEMBL1136350, “Design and synthesis of orally active inhibitors of TNF synthesis as anti-rheumatoid arthritis drugs” (Bioorg Med Chem Lett, 2003)

Legend:
MONO-MAC-6 = assay: Inhibitory activity against monomac6 (MM6) human monocytic cell line; format: functional, cell-based
[1] = Area under curve was determined in rat after oral administration at a concentration 30 mg/kg; format: ADME, organism-based; design: dose 30 mg/kg, route oral; conditions: in vivo
Rattus norvegicus = assay: Area under curve was determined in rat after oral administration at a concentration 30 mg/kg; NA= Not active; format: ADME, organism-based; design: dose 30 mg/kg, route oral; conditions: in vivo
[2] = Cmax in dog plasma after 30mg/kg oral dose; format: ADME, organism-based, Canis lupus familiaris; design: dose 30 mg/kg, route oral
[3] = Cmax in rat plasma after 30mg/kg oral dose; format: ADME, organism-based; design: dose 30 mg/kg, route oral
Mus musculus [4] = assay: Number of positive paws that was inflamed by murine collagen -induced arthritis(MCIA) in mice after peroral administration 13 day at a concentration 15 mg/kg; format: functional; conditions: route oral
Mus musculus [5] = assay: Reduction of murine collagen -induced arthritis(MCIA) in mice after peroral administration at a concentration 5 mg/kg; format: functional; conditions: route oral
Mus musculus [6] = assay: Number of paws at risk inflamed by murine collagen -induced arthritis(MCIA) in mice after peroral administration at a concentration 2 mg/kg; format: functional; conditions: route oral
Mus musculus [7] = assay: Number of positive paws that was inflamed by murine collagen -induced arthritis(MCIA) in mice after peroral administration 13 day at a concentration 120 mg/kg; format: functional; conditions: route oral
Mus musculus [8] = assay: Number of paws at risk inflamed by murine collagen -induced arthritis(MCIA) in mice after peroral administration at a concentration 120 mg/kg; format: functional; conditions: route oral
Mus musculus [9] = assay: Number of paws at risk inflamed by murine collagen -induced arthritis(MCIA) in mice after peroral administration at a concentration 5 mg/kg; format: functional; conditions: route oral
Mus musculus [10] = assay: Number of positive paws that was inflamed by murine collagen -induced arthritis(MCIA) in mice after peroral administration 13 day at a concentration 2 mg/kg; format: functional; conditions: route oral
[11] = Plasma concentration in dogs after 2 hr at 30mg/kg oral dose; format: ADME, organism-based, Canis lupus familiaris; conditions: dog, read-out: Conc_plasma
Mus musculus [12] = assay: Reduction of murine collagen -induced arthritis(MCIA) in mice after peroral administration at a concentration 15 mg/kg; format: functional; conditions: route oral
Mus musculus [13] = assay: Inhibition of murine collagen -induced arthritis(MCIA) in mice after peroral administration at a concentration 120 mg/kg; format: functional; conditions: route oral
Mus musculus [14] = assay: Number of positive paws that was inflamed by murine collagen -induced arthritis(MCIA) in mice after peroral administration 13 day at a concentration 45 mg/kg; format: functional; conditions: route oral
Mus musculus [15] = assay: Reduction of murine collagen -induced arthritis(MCIA) in mice after peroral administration at a concentration 2 mg/kg; format: functional; conditions: route oral
Mus musculus [16] = assay: Number of positive paws that was inflamed by murine collagen -induced arthritis(MCIA) in mice after peroral administration 13 day at a concentration 5 mg/kg; format: functional; conditions: route oral
Mus musculus [17] = assay: Inhibition of murine collagen -induced arthritis(MCIA) in mice after peroral administration at a concentration 5 mg/kg; format: functional; conditions: route oral
[18] = Plasma concentration in rats after 7 hr at 30mg/kg oral dose; format: ADME, organism-based; conditions: rat, read-out: Conc_plasma
Mus musculus [19] = assay: Number of paws at risk inflamed by murine collagen -induced arthritis(MCIA) in mice after peroral administration at a concentration 45 mg/kg; format: functional; conditions: route oral
Mus musculus [20] = assay: Inhibition of murine collagen -induced arthritis(MCIA) in mice after peroral administration at a concentration 15 mg/kg; format: functional; conditions: route oral
Mus musculus [21] = assay: Number of paws at risk inflamed by murine collagen -induced arthritis(MCIA) in mice after peroral administration at a concentration 15 mg/kg; format: functional; conditions: route oral
Mus musculus [22] = assay: Inhibition of murine collagen -induced arthritis(MCIA) in mice after peroral administration at a concentration 45 mg/kg; format: functional; conditions: route oral
Mus musculus [23] = assay: Reduction of murine collagen -induced arthritis(MCIA) in mice after peroral administration at a concentration 120 mg/kg; format: functional; conditions: route oral
Mus musculus [24] = assay: Reduction of murine collagen -induced arthritis(MCIA) in mice after peroral administration at a concentration 45 mg/kg; format: functional; conditions: route oral
Mus musculus [25] = assay: Inhibition of murine collagen -induced arthritis(MCIA) in mice after peroral administration at a concentration 2 mg/kg; format: functional; conditions: route oral

COc1ccc(C2=CCN(S(=O)(=O)N3CCCC[C@@H]3C(=O)NO)CC2)cc1 showed an IC50 (MONO-MAC-6; Homo sapiens, MONO-MAC-6) of 15000 nM.

In the case of CCCc1ccc(C2=CCN(S(=O)(=O)N3CCCC[C@@H]3C(=O)NO)CC2)cc1, the IC50 (MONO-MAC-6; Homo sapiens, MONO-MAC-6) is reported as 2600 nM.

For O=C(NO)[C@H]1CN(CC(F)(F)F)CCN1S(=O)(=O)N1CC=C(c2ccc(F)cc2)CC1, the AUC [1] was 3260 ng·h/mL and the IC50 (MONO-MAC-6; Homo sapiens, MONO-MAC-6) was 300 nM.

O=C(NO)[C@H]1CCCCN1S(=O)(=O)N1CC=C(c2ccc(F)c(F)c2)CC1 showed an IC50 (MONO-MAC-6; Homo sapiens, MONO-MAC-6) of 1200 nM.

With O=C(NO)[C@H]1CCCCN1S(=O)(=O)N1CC=C(c2ccccc2)CC1 the IC50 (MONO-MAC-6; Homo sapiens, MONO-MAC-6) was 240 nM.

For O=C(NO)[C@H]1CCCCN1S(=O)(=O)N1CC=C(c2ccc(Br)cc2)CC1, the IC50 (MONO-MAC-6; Homo sapiens, MONO-MAC-6) was 1200 nM.

In the case of O=C(NO)[C@H]1CNCCN1S(=O)(=O)N1CC=C(c2ccc(F)cc2)CC1, the AUC (Rattus norvegicus) is reported as “Not Active” and the IC50 (MONO-MAC-6; Homo sapiens, MONO-MAC-6) is reported as 3560 nM.

Molecule CCc1cccc(C2=CCN(S(=O)(=O)N3CCCC[C@@H]3C(=O)NO)CC2)c1 has an IC50 (MONO-MAC-6; Homo sapiens, MONO-MAC-6) of 320 nM.

With C[C@@H](NS(=O)(=O)N1CC=C(c2ccc(Cl)cc2)CC1)C(=O)NO the IC50 (MONO-MAC-6; Homo sapiens, MONO-MAC-6) was 1240 nM.

O=C(NO)[C@H]1CCCCN1S(=O)(=O)N1CC=C(c2cccc(-c3ccccc3)c2)CC1 gave an IC50 (MONO-MAC-6; Homo sapiens, MONO-MAC-6) of 7600 nM.

O=C(NO)[C@H]1CCCCN1S(=O)(=O)N1CC=C(c2ccc(F)cc2)CC1 showed a Cmax [2] of 117 ng/mL, a Cmax [3] of 3060 ng/mL and an IC50 (MONO-MAC-6; Homo sapiens, MONO-MAC-6) of 300 nM.

In the case of C[C@@H](NS(=O)(=O)N1CCC(c2ccc(Cl)cc2)CC1)C(=O)NO, the IC50 (MONO-MAC-6; Homo sapiens, MONO-MAC-6) is reported as 5800 nM.

CN(C)C(=O)N1CCN(S(=O)(=O)N2CC=C(c3ccc(F)cc3)CC2)[C@@H](C(=O)NO)C1 gave a Positive paws (Mus musculus [4]) of 41%, an inhibition in vivo at 5 mg/kg (Mus musculus [5]) of 69% and a Severity (Mus musculus [6]) of 2.7. For the same molecule, the Positive paws (Mus musculus [7]) was 4%, the Severity (Mus musculus [8]) was 1 and the Severity (Mus musculus [9]) was 2.4. It also gave a Positive paws (Mus musculus [10]) of 27%, a concentration at 2 h [11] of 110 ng/mL and a Cmax [2] of 182 ng/mL. It also gave an inhibition in vivo at 15 mg/kg (Mus musculus [12]) of 49%, a Cmax [3] of 1050 ng/mL and a Max score (Mus musculus [13]) of 0.3. The AUC [1] was 6180 ng·h/mL, the Positive paws (Mus musculus [14]) was 33% and the inhibition in vivo at 2 mg/kg (Mus musculus [15]) was 67%. The Positive paws (Mus musculus [16]) was 30%, the Max score (Mus musculus [17]) was 2.7 and the concentration at 7 h [18] was 233 ng/mL. It also gave a Severity (Mus musculus [19]) of 2.9, a Max score (Mus musculus [20]) of 4.5 and a Severity (Mus musculus [21]) of 2.8. For the same molecule, the IC50 (MONO-MAC-6; Homo sapiens, MONO-MAC-6) was 200 nM, the Max score (Mus musculus [22]) was 3.8 and the inhibition in vivo at 120 mg/kg (Mus musculus [23]) was 96%. It also gave an inhibition in vivo at 45 mg/kg (Mus musculus [24]) of 56% and a Max score (Mus musculus [25]) of 2.9.

O=C(NO)[C@H]1CN(C(=O)N2CCOCC2)CCN1S(=O)(=O)N1CC=C(c2ccc(F)cc2)CC1 showed an AUC [1] of 7940 ng·h/mL and an IC50 (MONO-MAC-6; Homo sapiens, MONO-MAC-6) of 350 nM.

For O=C(NO)[C@H]1CCCCN1S(=O)(=O)N1CC=C(c2ccc(Oc3ccccc3)cc2)CC1, the IC50 (MONO-MAC-6; Homo sapiens, MONO-MAC-6) was 3300 nM.

With CN(C)S(=O)(=O)N1CCN(S(=O)(=O)N2CC=C(c3ccc(F)cc3)CC2)[C@@H](C(=O)NO)C1 the AUC [1] was 3270 ng·h/mL and the IC50 (MONO-MAC-6; Homo sapiens, MONO-MAC-6) was 250 nM.

In the case of O=C(NO)[C@H]1CCCCN1S(=O)(=O)N1CC=C(c2ccc(-c3ccccc3)cc2)CC1, the IC50 (MONO-MAC-6; Homo sapiens, MONO-MAC-6) is reported as 19000 nM.

CN(C)P(=O)(N(C)C)N1CCN(S(=O)(=O)N2CC=C(c3ccc(F)cc3)CC2)[C@@H](C(=O)NO)C1 gave an AUC [1] of 1540 ng·h/mL and an IC50 (MONO-MAC-6; Homo sapiens, MONO-MAC-6) of 510 nM.

CNC(=O)N1CCN(S(=O)(=O)N2CC=C(c3ccc(F)cc3)CC2)[C@@H](C(=O)NO)C1 gave an AUC [1] of 1790 ng·h/mL and an IC50 (MONO-MAC-6; Homo sapiens, MONO-MAC-6) of 120 nM.

COc1cccc(C2=CCN(S(=O)(=O)N3CCCC[C@@H]3C(=O)NO)CC2)c1 showed an IC50 (MONO-MAC-6; Homo sapiens, MONO-MAC-6) of 260 nM.

Work on O=C(NO)[C@H]1CCCCN1S(=O)(=O)N1CC=C(c2ccc(Cl)cc2)CC1 (stereo in doubt; 3) yielded an IC50 (MONO-MAC-6; Homo sapiens, MONO-MAC-6) of 430 nM.

O=C(NO)[C@H]1CCCCN1S(=O)(=O)N1CC=C(c2ccc(Cl)cc2)CC1 (stereo in doubt; 6) showed an IC50 (MONO-MAC-6; mono-mac-6) of 480 nM.
